Test results as given in patent US6642391B2, “Amycomycin, a process for its production and its use as a pharmaceutical” (priority 1999, dated 2003).
In brackets after ≈: the same amount, converted by molar mass. Where two headings read alike, the source gives them in different places.

How the values were obtained:
E.faecium O2D3IP2 = assay: MIC micro-dilutions test; type: cell-based; conditions: Enterococcus faecium; E.faecium O2D3IP2, tei R van R ery R tet R; Gram-positive; read-out: Minimum Inhibition Concentration
From the text: (§1) Lately, these strains have proven increasingly to be problem strains, i.e., those microorganisms that have become resistant to existing antibiotics. The superiority of the present compound in relation to other antibiotics is shown, for example, in the inhibition of vancomycin- and teicoplanin-resistant strains such as, for example, E. faecalis, E. faecium or E. gallinarium.

E.faecalis O2D2UC5 = assay: MIC micro-dilutions test; type: cell-based; conditions: Enterococcus faecalis
From the text: as §1

S.aureus 011HT3 = assay: MIC micro-dilutions test; type: cell-based; conditions: Staphylococcus aureus
From the text: as §1

E.faecalis O2D2HT10 = assay: MIC micro-dilutions test; type: cell-based; conditions: Enterococcus faecalis
From the text: as §1

S.aureus 011GO71 = assay: MIC micro-dilutions test; type: cell-based; conditions: Staphylococcus aureus
From the text: as §1

S.aureus 011GR91 = assay: MIC micro-dilutions test; type: cell-based; conditions: Staphylococcus aureus
From the text: as §1

S.aureus 011HT1 = assay: MIC micro-dilutions test; type: cell-based; conditions: Staphylococcus aureus
From the text: as §1

S.pyogenes O2A1UC1 = assay: MIC micro-dilutions test; type: cell-based; conditions: Streptococcus pyogenes
From the text: as §1

S.aureus 011DU5 = assay: MIC micro-dilutions test; type: cell-based; conditions: Staphylococcus aureus
From the text: as §1

S.mitis O2mitGR16 = assay: MIC micro-dilutions test; type: cell-based; conditions: Streptococcus mitis
From the text: as §1

E.faecalis O2D2DU18 = assay: MIC micro-dilutions test; type: cell-based; conditions: Enterococcus faecalis
From the text: as §1

E.gallinarium O2D0HM8 = assay: MIC micro-dilutions test; type: cell-based; conditions: read-out: Minimum Inhibition Concentration
From the text: as §1

Strepto gr.G O2G0CB2 = assay: MIC micro-dilutions test; type: cell-based; conditions: read-out: Minimum Inhibition Concentration
From the text: as §1

S.pyogenes O2A1SJ1 = assay: MIC micro-dilutions test; type: cell-based; conditions: Streptococcus pyogenes
From the text: as §1

S.milleri O2milGR12 = assay: MIC micro-dilutions test; type: cell-based; conditions: S.milleri O2milGR12, ery S van S; Gram-positive; read-out: Minimum Inhibition Concentration
From the text: as §1

E.faecium O2D3HM3 = assay: MIC micro-dilutions test; type: cell-based; conditions: Enterococcus faecium
From the text: as §1

[1] = system: Staph.coag.negative 012HT5; assay: MIC micro-dilutions test; type: cell-based; conditions: read-out: Minimum Inhibition Concentration
From the text: as §1

S.pyogenes O2A1FI6 = assay: MIC micro-dilutions test; type: cell-based; conditions: Streptococcus pyogenes
From the text: as §1

E.faecium O2D3HT12 = assay: MIC micro-dilutions test; type: cell-based; conditions: Enterococcus faecium
From the text: as §1

S.aureus 011GO64 = assay: MIC micro-dilutions test; type: cell-based; conditions: Staphylococcus aureus
From the text: as §1

S.aureus 011HT18 = assay: MIC micro-dilutions test; type: cell-based; conditions: Staphylococcus aureus
From the text: as §1

E.faecium O2D3AP9 = assay: MIC micro-dilutions test; type: cell-based; conditions: Enterococcus faecium
From the text: as §1

S.pneumoniae 030BI2 = assay: MIC micro-dilutions test; type: cell-based; conditions: Streptococcus pneumoniae
From the text: as §1

E.faecalis O2D2HM9 = assay: MIC micro-dilutions test; type: cell-based; conditions: Enterococcus faecalis
From the text: as §1

S.aureus 011CB20 = assay: MIC micro-dilutions test; type: cell-based; conditions: Staphylococcus aureus
From the text: as §1

P.aeruginosa 1771 391HT2 = assay: MIC micro-dilutions test; type: cell-based; conditions: Pseudomonas aeruginosa, 1771391HT2, Gram-negative, read-out: Minimum Inhibition Concentration
From the text: as §1

[2] = system: P.aeruginosa 1771m 391HT3; assay: MIC micro-dilutions test; type: cell-based; conditions: Pseudomonas aeruginosa, 1771M391HT3, read-out: Minimum Inhibition Concentration
From the text: as §1

S.epidermidis 012GO20 = assay: MIC micro-dilutions test; type: cell-based; conditions: Staphylococcus epidermidis; S.epidermidis 012GO20, oxa S ery S tet R; Gram-positive; read-out: Minimum Inhibition Concentration
From the text: as §1

S.epidermidis 012GO42 = assay: MIC micro-dilutions test; type: cell-based; conditions: Staphylococcus epidermidis; S.epidermidis 012GO42, oxa R; Gram-positive; read-out: Minimum Inhibition Concentration
From the text: as §1

[3] = Physical-chemical characteristics: solubility; type: physicochemical; conditions: solvents: methanol, DMSO, pyridine
From the text: The physical-chemical as well as the spectroscopic characteristics of the compound Amycomycin according to the invention are as follows: […]

[4] = system: gram-positive bacteria such as Staphylo- and Enterococci; assay: Antibacterial activity; type: cell-based; conditions: particularly against gram-positive bacteria such as Staphylo- and Enterococci
From the text: as §1

CN[C@H](CC(C)C)C(=O)N[C@H]1C(=O)N[C@@H](CC(N)=O)C(=O)N[C@H]2C(=O)N[C@H]3C(=O)N[C@H](C(=O)N[C@H](C(=O)O)c4cc(O)cc(O)c4-c4cc3ccc4O)[C@H](O)c3ccc(c(Cl)c3)Oc3cc2cc(c3O[C@@H]2O[C@H](CO)[C@@H](O)[C@H](O)[C@H]2O[C@H]2C[C@](C)(N)[C@H](O)[C@H](C)O2)Oc2ccc(cc2Cl)[C@H]1O [Vancomycin, reference compound]
MIC (E.faecium O2D3IP2): > 40 µg/mL
MIC (E.faecalis O2D2UC5; ATCC29212, read-out: Minimum Inhibition Concentration): 2.5 µg/mL (≈ 1.73 µM)
MIC (S.aureus 011HT3; 011HT3, read-out: Minimum Inhibition Concentration): 0.3 µg/mL (≈ 0.207 µM)
MIC (E.faecalis O2D2HT10; O2D2HT10, read-out: Minimum Inhibition Concentration): 0.6 µg/mL (≈ 0.414 µM)
MIC (S.aureus 011GO71; 011GO71, read-out: Minimum Inhibition Concentration): 0.6 µg/mL (≈ 0.414 µM)
MIC (S.aureus 011GR91; 011GR91, read-out: Minimum Inhibition Concentration): 1.2 µg/mL (≈ 0.828 µM)
MIC (S.aureus 011HT1; 011HT1, read-out: Minimum Inhibition Concentration): 0.08 µg/mL (≈ 0.0552 µM)
MIC (S.pyogenes O2A1UC1; O2A1UC1, read-out: Minimum Inhibition Concentration): 0.15 µg/mL (≈ 0.104 µM)
MIC (S.aureus 011DU5; 011DU5, read-out: Minimum Inhibition Concentration): 0.15 µg/mL (≈ 0.104 µM)
MIC (S.mitis O2mitGR16; O2MITGR16, read-out: Minimum Inhibition Concentration): 0.3 µg/mL (≈ 0.207 µM)
MIC (E.faecalis O2D2DU18; O2D2DU18, read-out: Minimum Inhibition Concentration): 0.3 µg/mL (≈ 0.207 µM)
MIC (E.gallinarium O2D0HM8): > 40 µg/mL
MIC (Strepto gr.G O2G0CB2): 0.15 µg/mL (≈ 0.104 µM)
MIC (S.pyogenes O2A1SJ1; O2A1SJ1, read-out: Minimum Inhibition Concentration): 0.15 µg/mL (≈ 0.104 µM)
MIC (S.milleri O2milGR12): 0.3 µg/mL (≈ 0.207 µM)
MIC (E.faecium O2D3HM3; O2D3HM3, read-out: Minimum Inhibition Concentration): > 40 µg/mL
MIC [1]: 0.6 µg/mL (≈ 0.414 µM)
MIC (S.pyogenes O2A1FI6; O2A1FI6, read-out: Minimum Inhibition Concentration): 0.08 µg/mL (≈ 0.0552 µM)
MIC (E.faecium O2D3HT12; O2D3HT12, read-out: Minimum Inhibition Concentration): > 40 µg/mL
MIC (S.aureus 011GO64; 011GO64, read-out: Minimum Inhibition Concentration): 1.2 µg/mL (≈ 0.828 µM)
MIC (S.aureus 011HT18; ATCC13709, read-out: Minimum Inhibition Concentration): 0.3 µg/mL (≈ 0.207 µM)
MIC (E.faecium O2D3AP9; O2D3AP9, read-out: Minimum Inhibition Concentration): > 40 µg/mL
MIC (S.pneumoniae 030BI2; 030BI2, read-out: Minimum Inhibition Concentration): 0.15 µg/mL (≈ 0.104 µM)
MIC (E.faecalis O2D2HM9; O2D2HM9, read-out: Minimum Inhibition Concentration): > 40 µg/mL
MIC (S.aureus 011CB20; 011CB20, read-out: Minimum Inhibition Concentration): 0.15 µg/mL (≈ 0.104 µM)

C/C(=C\CC(O)CC(O)CCC(C)C(O)C(C)C(O)CCCC(O)C(C)C(O)/C(C)=C/C(C)C(=O)/C(C)=C/C(O)C(O)CC(O)CC(O)C(C)CCC(O)CC(O)CCC(C)C(O)C(C)C(O)C(C)C)C(=O)C1=C(O)/C(=C/C(C)C)N(C)C1=O (stereo not drawn) [Amycomycin]
MIC (E.faecalis O2D2UC5; ATCC29212, E.faecalis O2D2UC5, ATCC 29212 nov R, Gram-positive, read-out: Minimum Inhibition Concentration): 2.5 µg/mL (≈ 2.09 µM)
MIC (S.aureus 011HT3; S.aureus 011HT3, oxa S ery S, Gram-positive, read-out: Minimum Inhibition Concentration): 0.08 µg/mL (≈ 0.0667 µM)
MIC (E.faecalis O2D2HT10; E.faecalis O2D2HT10, nov R van S tet R, Gram-positive, read-out: Minimum Inhibition Concentration): 1.2 µg/mL (≈ 1 µM)
MIC (S.aureus 011GO71; S.aureus 011GO71, ofl S oxa R ery S tet R, Gram-positive, read-out: Minimum Inhibition Concentration): 0.15 µg/mL (≈ 0.125 µM)
MIC (S.aureus 011GR91; S.aureus 011GR91, pri R oxa R ery R nov R, Gram-positive, read-out: Minimum Inhibition Concentration): 1.2 µg/mL (≈ 1 µM)
MIC (S.aureus 011HT1; S.aureus 011HT1, nov R, Gram-positive, read-out: Minimum Inhibition Concentration): ≤ 0.04 µg/mL
MIC (S.pyogenes O2A1UC1; S.pyogenes O2A1UC1, van S ery S, Gram-positive, read-out: Minimum Inhibition Concentration): 0.6 µg/mL (≈ 0.501 µM)
MIC (S.aureus 011DU5; S.aureus 011DU5, nov R tet R, Gram-positive, read-out: Minimum Inhibition Concentration): 0.08 µg/mL (≈ 0.0667 µM)
MIC (S.mitis O2mitGR16; S.mitis O2mitGR16, ery Ri van S, Gram-positive, read-out: Minimum Inhibition Concentration): 1.2 µg/mL (≈ 1 µM)
MIC (E.faecalis O2D2DU18; E.faecalis O2D2DU18, tet R nov R, Gram-positive, read-out: Minimum Inhibition Concentration): 1.2 µg/mL (≈ 1 µM)
MIC (P.aeruginosa 1771 391HT2): > 40 µg/mL
MIC (E.gallinarium O2D0HM8; E.gallinarium O2D0HM8, van C tet R ery S, Gram-positive): 1.2 µg/mL (≈ 1 µM)
MIC (Strepto gr.G O2G0CB2; Strepto gr.G O2G0CB2, tet R rif R nov R, Gram-positive): 0.6 µg/mL (≈ 0.501 µM)
MIC (S.pyogenes O2A1SJ1; S.pyogenes O2A1SJ1, van S ery Rc, Gram-positive, read-out: Minimum Inhibition Concentration): 0.3 µg/mL (≈ 0.25 µM)
MIC (E.faecium O2D3HM3; E.faecium O2D3HM3, nov S van A ery R tei R, Gram-positive, read-out: Minimum Inhibition Concentration): 1.2 µg/mL (≈ 1 µM)
MIC ([1]; Staph.coag.negative 012HT5, ofl R oxa R tet R, Gram-positive): 0.15 µg/mL (≈ 0.125 µM)
MIC (S.pyogenes O2A1FI6; S.pyogenes O2A1FI6, ery R, Gram-positive, read-out: Minimum Inhibition Concentration): 0.6 µg/mL (≈ 0.501 µM)
MIC (E.faecium O2D3HT12; E.faecium O2D3HT12, tei R van R ery R tet R, Gram-positive, read-out: Minimum Inhibition Concentration): 0.6 µg/mL (≈ 0.501 µM)
MIC (S.aureus 011GO64; S.aureus 011GO64, ofl R oxa R ery Rc tet R, Gram-positive, read-out: Minimum Inhibition Concentration): 0.3 µg/mL (≈ 0.25 µM)
MIC [2]: > 40 µg/mL
MIC (S.epidermidis 012GO20): 0.3 µg/mL (≈ 0.25 µM)
MIC (S.aureus 011HT18; ATCC13709, S.aureus 011HT18, ATCC 13709 Smith, Gram-positive, read-out: Minimum Inhibition Concentration): 0.08 µg/mL (≈ 0.0667 µM)
MIC (E.faecium O2D3AP9; E.faecium O2D3AP9, nov S van R ery S tei R, Gram-positive, read-out: Minimum Inhibition Concentration): 0.6 µg/mL (≈ 0.501 µM)
MIC (S.pneumoniae 030BI2; S.pneumoniae 030BI2, ery R, Gram-positive, read-out: Minimum Inhibition Concentration): 0.15 µg/mL (≈ 0.125 µM)
MIC (S.epidermidis 012GO42): 0.3 µg/mL (≈ 0.25 µM)
MIC (E.faecalis O2D2HM9; E.faecalis O2D2HM9, nov R van B ery R tei S, Gram-positive, read-out: Minimum Inhibition Concentration): 2.5 µg/mL (≈ 2.09 µM)
MIC (S.aureus 011CB20; S.aureus 011CB20, oxa R ery Rc tet R, Gram-positive, read-out: Minimum Inhibition Concentration): 0.08 µg/mL (≈ 0.0667 µM)
Solubility (Appearance) [3]: colorless solid, soluble in methanol, DMSO,
antibacterial activity [4]: extraordinary antibacterial activity
